Tests used:
[1] = Selectivity index, ratio of CC50 for cytotoxicity against HEK293T cells assessed as reduction in cell viability by MTT assay to EC50 for antiviral activity against HIV1 VSV-G pseudotyped virus infected in human HEK293T cells assessed as inhibition of viral growth; type: toxicity, cell-based; conditions: read-out: Ratio CC50/EC50
[2] = test system: Human immunodeficiency virus 1; test: Antiviral activity against HIV1 IIIB infected in human C8166 cells assessed as inhibition of viral replication by measuring reduction in p24 antigen level incubated for 3 to 7 days by ELISA analysis; type: functional, organism-based; conditions: Human immunodeficiency virus 1, IIIB
[3] = AUC (0 to t) in male Sprague-Dawley rat at 100 mg/kg, IG measured at 0.5 hrs LC-MS/MS analysis; type: ADME, organism-based; design: dose 100 mg/kg, time 0.5 hrs, route ig; conditions: in vivo, po
[4] = Acute toxicity in Sprague-Dawley rat assessed as effect on heart damage at 500 to 2000 mg/kg, IG measured on day 15; type: organism-based; conditions: in vivo, po, 360 h, dose 500-2000 mg/kg, time 15 day
[5] = AUC (0 to t) in female Sprague-Dawley rat at 100 mg/kg, IG measured at 0.5 hrs LC-MS/MS analysis; type: ADME, organism-based; design: time 0.5 hrs, dose 100 mg/kg, route ig; conditions: in vivo, po
[6] = AUC (0 to t) in Sprague-Dawley rat at 5 mg/kg, IG measured upto 24 hrs by LC-MS/MS analysis; type: ADME, organism-based; design: time < 24 hrs, dose 5 mg/kg, route ig; conditions: in vivo, po
[7] = test system: Human immunodeficiency virus 1; test: Antiviral activity against HIV-1 harboring integrase G140S/Q148H double mutant infected in human TZM-bl cells assessed as inhibition of viral replication incubated for 3 to 7 days by luciferase assay; type: functional, organism-based; conditions: Human immunodeficiency virus 1, TZM-bl
[8] = test system: Human immunodeficiency virus 1; test: Antiviral activity against HIV1 IIIB infected in human C8166 cells assessed as inhibition of syncytia formation incubated for 3 to 7 days by syncytia assays; type: functional, organism-based; conditions: Human immunodeficiency virus 1, IIIB
[9] = test system: Human immunodeficiency virus 1; test: Antiviral activity against HIV1 IIIB infected in human MT4 cells assessed as inhibition of viral replication incubated for 3 to 7 days by MTT analysis; type: functional, organism-based; conditions: Human immunodeficiency virus 1, IIIB
[10] = Toxicity in Sprague-Dawley rat assessed as effect on food consumption at 10 to 30 mg/kg, po administered once daily for 4 weeks and measured after 24 hrs post last dose; type: organism-based; conditions: in vivo, 696 h, dose 10-30 mg/kg
[11] = AUC (0 to t) in male Sprague-Dawley rat at 30 mg/kg, IG measured at 24 hrs LC-MS/MS analysis; type: ADME, organism-based; design: time 24 hrs, dose 30 mg/kg, route ig; conditions: in vivo, po
[12] = AUC (0 to t) in Sprague-Dawley rat at 2.5 mg/kg, IG measured upto 24 hrs by LC-MS/MS analysis; type: ADME, organism-based; design: time < 24 hrs, dose 2.5 mg/kg, route ig; conditions: in vivo, po
[13] = AUC (0 to t) in female Sprague-Dawley rat at 10 mg/kg, IG measured at 0.5 hrs LC-MS/MS analysis; type: ADME, organism-based; design: time 0.5 hrs, dose 10 mg/kg, route ig; conditions: in vivo, po
[14] = Half life in Sprague-Dawley rat at 5 mg/kg, IG measured upto 24 hrs by LC-MS/MS analysis; type: ADME, organism-based; conditions: in vivo, po
[15] = test system: Human immunodeficiency virus 1; test: Antiviral activity against HIV1 VSV-G pseudotyped virus infected in human HEK293T cells assessed as inhibition of viral growth preincubated for 3 hrs followed by washout and further incubated with compound for 72 hrs by luciferase assay; type: functional, organism-based; conditions: Human immunodeficiency virus 1, HEK-293T
[16] = Acute toxicity in Sprague-Dawley rat assessed as effect on lung damage at 500 to 2000 mg/kg, IG measured on day 15; type: organism-based; conditions: in vivo, po, 360 h, dose 500-2000 mg/kg, time 15 day
[17] = Drug uptake in Beagle dog PBMC cells assessed as ((2R,3R,4S,5R)-5-(6-amino-2-fluoro-9H-purin-9-yl)-2-ethynyl-4-fluoro-3-hydroxytetrahydrofuran-2-yl)methyl tetrahydrogen triphosphate formation at 6 to 12 mg/kg, po measured at 2 to 168 hrs by LC-MS/MS analysis; type: ADME, organism-based, Canis lupus familiaris; conditions: in vivo, dose lower 6 mg/kg, time lower 2 hrs, dose upper 12 mg/kg, time upper 168 hrs
[18] = AUC (0 to t) in male Sprague-Dawley rat at 10 mg/kg, IG measured at 24 hrs LC-MS/MS analysis; type: ADME, organism-based; design: dose 10 mg/kg, time 24 hrs, route ig; conditions: in vivo, po
[19] = Bioavailability in Sprague-Dawley rat at 2.5 mg/kg, IG measured upto 24 hrs by LC-MS/MS analysis; type: ADME, organism-based; conditions: in vivo, po
[20] = AUC (0 to t) in female Sprague-Dawley rat at 30 mg/kg, IG measured at 24 hrs LC-MS/MS analysis; type: ADME, organism-based; design: dose 30 mg/kg, time 24 hrs, route ig; conditions: in vivo, po
[21] = Tmax in Sprague-Dawley rat at 10 mg/kg, IG measured upto 24 hrs by LC-MS/MS analysis; type: ADME, organism-based; conditions: in vivo, po
[22] = AUC (0 to t) in male Sprague-Dawley rat at 100 mg/kg, IG measured at 24 hrs LC-MS/MS analysis; type: ADME, organism-based; design: time 24 hrs, dose 100 mg/kg, route ig; conditions: in vivo, po
[23] = Toxicity in Sprague-Dawley rat assessed as effect on body weight at 10 to 30 mg/kg, po administered once daily for 4 weeks and measured after 24 hrs post last dose; type: organism-based; conditions: in vivo, 696 h, dose 10-30 mg/kg
[24] = Acute toxicity in Sprague-Dawley rat assessed as effect on brain damage at 500 to 2000 mg/kg, IG measured on day 15; type: organism-based; conditions: in vivo, po, 360 h, dose 500-2000 mg/kg, time 15 day
[25] = test system: Human immunodeficiency virus 1; test: Antiviral activity against HIV1 NL4-3 infected in human C8166 cells assessed as inhibition of viral replication by measuring reduction in p24 antigen level incubated for 3 to 7 days by ELISA analysis; type: functional, organism-based; conditions: Human immunodeficiency virus 1, NL4-3, C8166
[26] = AUC (0 to t) in male Sprague-Dawley rat at 10 mg/kg, IG measured at 0.5 hrs LC-MS/MS analysis; type: ADME, organism-based; design: dose 10 mg/kg, time 0.5 hrs, route ig; conditions: in vivo, po
[27] = Half life in Sprague-Dawley rat at 5 mg/kg, iv measured upto 24 hrs by LC-MS/MS analysis; type: ADME, organism-based; conditions: in vivo
[28] = AUC (0 to t) in female Sprague-Dawley rat at 30 mg/kg, IG measured at 0.5 hrs LC-MS/MS analysis; type: ADME, organism-based; design: time 0.5 hrs, dose 30 mg/kg, route ig; conditions: in vivo, po
[29] = Acute toxicity in Sprague-Dawley rat assessed as death at 500 to 2000 mg/kg, IG measured for 14 days; type: organism-based; conditions: in vivo, po, 336 h, dose 500-2000 mg/kg, time 14 day
[30] = Acute toxicity in Sprague-Dawley rat assessed as effect on liver damage at 500 to 2000 mg/kg, IG measured on day 15; type: organism-based; conditions: in vivo, po, 360 h, dose 500-2000 mg/kg, time 15 day
[31] = test system: Human immunodeficiency virus 1; test: Antiviral activity against HIV1 A17 infected in human C8166 cells assessed as inhibition of viral replication by measuring reduction in p24 antigen level incubated for 3 to 7 days by ELISA analysis; type: functional, organism-based; conditions: Human immunodeficiency virus 1, A17, C8166
[32] = AUC (0 to t) in male Sprague-Dawley rat at 30 mg/kg, IG measured at 0.5 hrs LC-MS/MS analysis; type: ADME, organism-based; design: dose 30 mg/kg, time 0.5 hrs, route ig; conditions: in vivo, po

Question: Which results are given for `C#C[C@]1(CO)O[C@@H](n2cnc3c(N)nc(F)nc32)[C@@H](F)[C@@H]1O`?
Answer: selectivity ratio [1]: > 111000; EC50 [2]: 6.5 nM; AUC(0-t) at 0.5 h [3]: 89300 ng·h/mL; Activity [4]: Non-Toxic; AUC(0-t) at 0.5 h [5]: 87400 ng·h/mL; AUC(0-t) at 24 h [6]: 3630 ng·h/mL; EC50 [7]: 2.84 nM; EC50 [8]: 3.51 nM; EC50 [9]: 1.22 nM; Activity [10]: Non-Toxic; AUC(0-t) at 24 h [11]: 27100 ng·h/mL; AUC(0-t) at 24 h [12]: 1720 ng·h/mL; AUC(0-t) at 0.5 h [13]: 7020 ng·h/mL; half-life [14]: 3.2 h; EC50 [15]: 0.9 nM; Activity [16]: Non-Toxic; Drug metabolism [17]: Metabolite_Detected; AUC(0-t) at 24 h [18]: 8150 ng·h/mL; bioavailability [19]: 64.2%; AUC(0-t) at 24 h [20]: 26500 ng·h/mL; Tmax [21]: 1 h; AUC(0-t) at 24 h [22]: 85800 ng·h/mL; Activity [23]: Non-Toxic; Activity [24]: Non-Toxic; EC50 [25]: 1.18 nM; AUC(0-t) at 0.5 h [26]: 6860 ng·h/mL; half-life [27]: 1.8 h; AUC(0-t) at 0.5 h [28]: 22800 ng·h/mL; Activity [29]: Non-Toxic; Activity [30]: Non-Toxic; EC50 [31]: 1.53 nM; AUC(0-t) at 0.5 h [32]: 28200 ng·h/mL
